Laboratory results published in patent publication US5677318A, “Diphenyl-1,2-3-thiadiazoles as anti-inflammatory agents” (Merck Frosst Canada, Inc., priority 1996, dated 1997).

What was measured:
COX-2 = molecular target: T1, COX-2 (Homo sapiens, UniProt P35354); experiment: Human whole blood assay, COX-2 (LPS-induced PGE2 production); format: cell-based; settings: 24 hours at 37° C
T1 construct: incubation of human whole blood with LPS which induces COX-2; endogenous in cells; host or cells: LPS-stimulated fresh human whole blood (blood cells not specified)
T1 sequence (P35354 18-604): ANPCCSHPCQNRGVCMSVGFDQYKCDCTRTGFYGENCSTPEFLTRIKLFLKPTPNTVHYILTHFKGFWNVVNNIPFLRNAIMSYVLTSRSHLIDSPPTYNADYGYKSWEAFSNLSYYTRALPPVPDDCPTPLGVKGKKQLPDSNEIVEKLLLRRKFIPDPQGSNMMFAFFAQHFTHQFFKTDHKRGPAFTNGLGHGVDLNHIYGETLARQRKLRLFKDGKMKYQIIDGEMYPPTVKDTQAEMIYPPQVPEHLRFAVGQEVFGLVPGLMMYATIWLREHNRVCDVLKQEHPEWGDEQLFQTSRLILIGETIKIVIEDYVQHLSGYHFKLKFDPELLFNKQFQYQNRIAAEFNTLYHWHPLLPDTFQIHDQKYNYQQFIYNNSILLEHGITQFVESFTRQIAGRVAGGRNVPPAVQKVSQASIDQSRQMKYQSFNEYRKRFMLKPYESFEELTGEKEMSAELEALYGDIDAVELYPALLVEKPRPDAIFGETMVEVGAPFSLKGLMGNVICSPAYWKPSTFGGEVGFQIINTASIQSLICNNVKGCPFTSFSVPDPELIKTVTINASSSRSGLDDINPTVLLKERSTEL
Source text: (§1) As well, platelets in whole blood contain a large amount of the COX-1 enzyme. Immediately following blood clotting, platelets are activated through a thrombin-mediated mechanism. This reaction results in the production of thromboxane B2 (TxB2) via activation of COX-1.
Fresh blood was collected in heparinized tubes by venipuncture from both male and female volunteers. The subjects had no apparent inflammatory conditions and had not taken any NSAIDs for at least 7 days prior to blood collection. Plasma was immediately obtained from a 2 mL blood aliquot to use as blank (basal levels of PGE2).
(§2) In the assay, inhibition is determined by measuring the amount of prostaglandin E2 (PGE2) synthesized in the presence of arachidonic acid, COX-1 or COX-2 and a putative inhibitor.

rat paw edema = experiment: Rat paw edema assay (carrageenan); format: in vivo, Male Sprague-Dawley rats; settings: po, 1 hr before subplantar carrageenan, paw volume at 3 hr, read-out: ED50 (edema inhibition in rat paw)
Method: Male Sprague-Dawley rats (150-200 g) were fasted overnight and were given, po, either vehicle (1% methocel or 5% Tween 80), or a test compound. One hr later, a line was drawn using a permanent marker at the level above the ankle in one hind paw to define the area of the paw to be monitored. The paw volume (V0) was measured using a plethysmometer (Ugo-Basile, Italy) based on the principle of water displacement. The animals were then injected subplantarly with 50 μl of 1% carrageenan solution in saline (FMC Corp, Maine) into the paw using an insulin syringe with a 25-gauge needle (i.e., 500 μg carrageenan per paw). Three hr later, the paw volume (V3) was measured and the increases in paw volume (V3 -V0) were calculated. The animals were sacrificed by CO2 asphyxiation and the absence or presence of stomach lesions scored. Data were compared with the vehicle-control values and percent inhibition calculated. ED50 values were used for comparison. All treatment groups were coded to eliminate observer bias.

COX-1 = molecular target: T2, COX-1 (Homo sapiens, UniProt P23219); experiment: Human whole blood assay, COX-1 (clotting-induced TxB2 production); format: cell-based; settings: 1 hour at 37° C
T2 construct: platelets in whole blood contain a large amount of the COX-1 enzyme; endogenous in cells; host or cells: platelets in fresh human whole blood
T2 sequence (P23219 24-599): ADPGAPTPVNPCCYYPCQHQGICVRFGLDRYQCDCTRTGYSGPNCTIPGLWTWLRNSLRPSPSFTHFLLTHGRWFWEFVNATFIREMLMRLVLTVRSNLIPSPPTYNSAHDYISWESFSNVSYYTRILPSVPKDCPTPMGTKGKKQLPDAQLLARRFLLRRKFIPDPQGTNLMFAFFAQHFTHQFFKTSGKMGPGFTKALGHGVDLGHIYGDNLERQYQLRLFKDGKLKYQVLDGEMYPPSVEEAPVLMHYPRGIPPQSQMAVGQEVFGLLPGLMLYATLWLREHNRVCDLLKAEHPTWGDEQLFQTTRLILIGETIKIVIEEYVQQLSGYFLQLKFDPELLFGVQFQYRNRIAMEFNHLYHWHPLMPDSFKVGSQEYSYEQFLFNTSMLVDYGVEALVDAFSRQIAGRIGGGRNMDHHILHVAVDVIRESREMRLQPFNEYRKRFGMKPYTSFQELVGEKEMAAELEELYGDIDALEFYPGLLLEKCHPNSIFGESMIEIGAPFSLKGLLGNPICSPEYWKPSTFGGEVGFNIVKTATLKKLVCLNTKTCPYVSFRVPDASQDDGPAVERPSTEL
Method: as §1
Aliquots of 500 μL were immediately transferred to siliconized microcentrifuge tubes preloaded with 2 μL of either DMSO or a test compound at final concentrations varying from 10 nM to 30 μM.
as §2

Row | SMILES | IC50 (COX-2) | ED50 (rat paw edema) | IC50 (COX-1)
1 | CS(=O)(=O)c1ccc(-c2snnc2-c2ccc(F)cc2)cc1 [Example 2] | 2.8 µM | 0.5 mg/kg | 20 µM
2 | CS(=O)(=O)c1ccc(-c2snnc2-c2cccc(F)c2)cc1 [Example 3] | 1.3 µM | – | 63 µM
3 | COc1ccc2c(c1)c(CC(=O)O)c(C)n2C(=O)c1ccc(Cl)cc1 [Indomethacin, indomethacin, reference compound] | – | 2 mg/kg | –
